Key:
oocytes = experiment: Toxicity of DTT to oocytes (loss of holding potential); assay type: cell-based, Xenopus laevis; conditions: DTT concentrations larger than 100 µM; holding potential lost
Description: Larger DTT concentrations were toxic since the oocyte holding potential was lost, a likely acute toxicity indication.
(§1) After 10 min of washout we applied 300 µM NEM + 10 µM DTT.

rP2 × 4R [1] = biological target: T1, rP2 × 4R (Rattus norvegicus, UniProt P51577); experiment: Short protocol: Zn(II) potentiation of single 10 µM ATP-evoked currents before/after thiol reagent treatment, rP2 × 4R oocytes; assay type: cell-based; conditions: 10, 30, 100 µM DTT
T1 construct: host or cells: Xenopus laevis oocytes (intranuclear plasmid injection, pcDNA3)
T1 sequence (P51577 1-388): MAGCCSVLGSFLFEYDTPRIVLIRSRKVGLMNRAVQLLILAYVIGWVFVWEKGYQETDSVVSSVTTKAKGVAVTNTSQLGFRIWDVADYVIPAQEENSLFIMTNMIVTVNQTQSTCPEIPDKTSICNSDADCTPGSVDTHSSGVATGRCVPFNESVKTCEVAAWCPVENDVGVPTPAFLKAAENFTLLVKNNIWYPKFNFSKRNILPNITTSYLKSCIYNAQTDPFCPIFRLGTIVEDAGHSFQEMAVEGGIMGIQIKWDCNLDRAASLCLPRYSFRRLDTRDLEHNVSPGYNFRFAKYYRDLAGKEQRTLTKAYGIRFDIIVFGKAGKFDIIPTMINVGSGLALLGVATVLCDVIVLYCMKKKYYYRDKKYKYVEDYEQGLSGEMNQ

rP2 × 4R [2] = biological target: T1, rP2 × 4R; experiment: as above; assay type: cell-based; conditions: for effect of alkylator plus Zn(II) treatment on Zn(II)-induced potentiation: 300 µM alkylator + 10 µM Zn(II)
Description: (§2) A simpler and shorter assay to test the Zn(II) potentiation was developed to better assess the loss of Zn(II) modulation elicited by the joint co-treatment of NEM plus Zn(II). […] Ten minutes after alkylator washout, cells were treated with Zn(II) plus NEM or iodoacetamide (IA) for 5 min followed by 20 min of alkylator washout. Next, the P2 × R was tested again to examine the magnitude of the Zn(II) potentiation.
(§3) After 10 min of washout we applied 300 µM NEM, 300 µM IA, 300 µM IAc, or 300 µM DTNB for 5 min in absence or presence of Zn(II) (10 µM for rP2 × 4R and 30 µM for rP2 × 2R).
as §1

rP2 × 2R = biological target: T2, rP2 × 2R (Rattus norvegicus, UniProt P49653); experiment: Short protocol: Zn(II) potentiation of single 10 µM ATP-evoked currents before/after thiol reagent treatment, rP2 × 2R oocytes; assay type: cell-based; parameters: expressed in transfected cells; host or cells: Xenopus laevis oocytes (intranuclear plasmid injection); conditions: for effect of alkylator plus Zn(II) treatment on Zn(II) potentiation/modulation: 300 µM alkylator + 30 µM Zn(II), 5 min, 20 min washout
T2 sequence (P49653 1-472): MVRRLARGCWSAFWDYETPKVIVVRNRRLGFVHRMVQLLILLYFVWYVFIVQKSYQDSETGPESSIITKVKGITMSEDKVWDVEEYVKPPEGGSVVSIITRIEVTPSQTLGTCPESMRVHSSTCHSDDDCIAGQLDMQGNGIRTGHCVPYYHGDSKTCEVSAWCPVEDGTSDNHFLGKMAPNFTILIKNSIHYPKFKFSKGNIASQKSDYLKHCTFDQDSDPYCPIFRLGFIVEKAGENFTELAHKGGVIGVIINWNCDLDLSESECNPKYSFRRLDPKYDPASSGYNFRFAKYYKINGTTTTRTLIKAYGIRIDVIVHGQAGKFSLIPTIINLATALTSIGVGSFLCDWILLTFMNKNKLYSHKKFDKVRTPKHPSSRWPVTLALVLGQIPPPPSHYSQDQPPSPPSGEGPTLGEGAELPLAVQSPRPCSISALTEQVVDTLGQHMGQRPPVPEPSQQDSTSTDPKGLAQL
Description: as §2, §3

rP2 × 4R [3] = biological target: T1, rP2 × 4R; parameters: method as in PMID 17962187; conditions: treatment in the absence of Zn(II); cited from earlier work
rP2 × 4R [4] = biological target: T1, rP2 × 4R; experiment: ATP concentration–response curves, two-electrode voltage clamp in oocytes expressing wild type rP2 × 4R; assay type: cell-based; conditions: NEM plus Zn(II) treatment; irreversible alkylation

O[C@@H](CS)[C@@H](O)CS (racemic) [DTT, dithiothreitol]
toxicity to oocytes (oocytes): toxic | potentiation of 10 µM ATP-evoked currents by co-applied DTT (rP2 × 4R [1]): neither 10, 30, nor 100 µM DTT potentiated the ATP-evoked currents | fold enhancement of ATP-evoked currents after treatment (rP2 × 4R [2]; after combined 10 µM DTT plus 300 µM NEM treatment, 5 min, 20 min washout): 3.9 ± 1.2 fold

O=C(O)c1cc(SSc2ccc([N+](=O)[O-])c(C(=O)O)c2)ccc1[N+](=O)[O-] [DTNB, 5,5’-dithiobis-(2-nitrobenzoic) acid]
effect of alkylator plus Zn(II) treatment on Zn(II)-induced potentiation (rP2 × 4R [2]; 5 min, 20 min washout): neither of the reagents blocked

NC(=O)CI [IA, Iodoacetamide]
effect of alkylator plus Zn(II) treatment on Zn(II) potentiation/modulation (rP2 × 2R): annulled the Zn(II) potentiation | fold enhancement of ATP-evoked currents after treatment (rP2 × 2R; after IA + 30 µM Zn(II) treatment): 8.6 ± 3.3 fold | ATP-evoked currents after IA plus Zn(II) treatment (rP2 × 4R [2]; 300 µM IA + 10 µM Zn(II), 5 min, 20 min washout): not increased | effect of alkylator plus Zn(II) treatment on Zn(II)-induced potentiation (rP2 × 4R [2]; 5 min, 20 min washout): abolished the Zn(II)-induced potentiation

O=C(O)CI [IAc, Iodoacetate]
effect of alkylator plus Zn(II) treatment on Zn(II)-induced potentiation (rP2 × 4R [2]; 5 min, 20 min washout): neither of the reagents blocked

C[N+](C)(C)CCSS(C)(=O)=O [MTSET, 2-(trimethylammonium)ethyl methanethiosulfonate]
effect of MTSET treatment on Zn(II) potentiation (rP2 × 4R [3]): diminish the Zn(II) potentiation

CCN1C(=O)C=CC1=O [NEM, N-ethylmaleimide]
time the lack of metal potentiation endured after NEM treatment (rP2 × 4R [4]): at least 1 h | effect of alkylator plus Zn(II) treatment on Zn(II) potentiation/modulation (rP2 × 2R): Did Not Annul | fold enhancement of ATP-evoked currents after treatment (rP2 × 2R; after NEM + 30 µM Zn(II) treatment): 3.3 ± 0.5 fold | fold increase of ATP-evoked currents after treatment (rP2 × 4R [2]; 10 µM ATP, after 300 µM NEM plus 10 µM Zn(II) treatment, vs first ATP current): 4.0 ± 1.0 fold | effect of alkylator plus Zn(II) treatment on Zn(II)-induced potentiation (rP2 × 4R [2]; 5 min, 20 min washout): abolished the Zn(II)-induced potentiation

From article PMC7555825, “New Insights of the Zn(II)-Induced P2 × 4R Positive Allosteric Modulation: Role of Head Receptor Domain SS2/SS3, E160 and D170” (International Journal of Molecular Sciences, 2020)
